Experimental data reported in patent publication US10519145B2, “Pyrazole-oxazolidinone compound for anti-hepatitis B virus” (Shanghai Zhimeng Biopharma Co., Ltd., priority 2016, dated 2019).

Legend:
HBV (HepG2.2.15 cells) = experiment: Anti-HBV activity experiment in vitro (HepG2.2.15, HBV DNA in supernatant, qPCR); assay type: cell-based; details: Hepatitis B virus, HBV DNA in supernatant by qPCR, eighth day
Method: Compound Dilution: initial concentrations of all compounds used in the anti-HBV activity experiments in vitro were 1 μM, 3-fold diluted into 8 concentrations; initial concentrations of all compounds used in the cytotoxicity assay were 100 μM, 3-fold diluted into 8 concentrations; and the mother liquor of the compound was diluted with DMSO.
(§1) Anti-HBV Activity Experiment In Vitro: HepG2.2.15 cells (4×10^4 cells/well) were seeded in 96-well plates and cultured overnight at 37° C. in 5% CO2. The next day, fresh cultures containing compounds in different concentrations were added into the culture wells. On the fifth day, the old culture medium in the culture wells was aspirated and removed. Fresh medium containing compounds in different concentrations was added. On the eighth day, supernatants in the culture wells were collected and used to extract HBV DNA in the supernatant. qPCR assay was used to detect HBV DNA content in the HepG2.2.15 supernatant.
The data analysis and the percentage of inhibition calculation: the percentage of inhibition was calculated by using the following formula: Inhibition %=[(HBV amount in DMSO control−HBV amount in sample)/HBV amount in DMSO control]×100%.

[1] = Pharmacokinetic determination in rats (IV and PO); assay type: in vivo, Sprague Dawley rats; details: rat
Method: The pharmacokinetics of the compound of Example 3 (racemate) in the present application was determined in rats.
Test compounds were intravenously (IV) and orally (P0) administered to Sprague Dawley rats once. Blood samples were collected at different time points. LC/MS/MS was used to determine the concentration of the test compounds in the rat plasma after the administration of the test compounds and calculate the relating parameters.
Time points for animal blood collection were: before administration, 5 min, 15 min, 30 min, 1 h, 2 h, 4 h, 6 h, 8 h and 24 h after administration. Approximately 0.3 mL of blood via jugular or other appropriate venipuncture was collected from each animal and anticoagulated with heparin sodium. Blood samples were collected and placed on ice, and plasma was centrifuged (centrifugation: 8000 rpm, 6 min, 4° C.). Plasma samples were stored in a −70° C. freezer before analysis.
50 μL of sample was taken into a 1.5 mL centrifuge tube, and 250 μL of internal standard solution was added. After subjected to vortex for 60 seconds and centrifugation for 5 min (14,000 revolutions/min), 200 μL of supernatant was taken into a 96-well sample plate for analysis.
Mass spectrometer: API 4000, Applied Biosystems, Inc., Electrospray Ionization Source (ESI), Tandem quadrupole mass analyzer.
Mass spectrometry conditions: ion source: electrospray ionization source (ESI); auxiliary gas (Gas1): 60 psi; auxiliary gas (Gas2): 60 psi; curtain gas (CUR): 14 psi; collision gas (CAD): 6; ion source voltage (IS): 5500V; ion source temperature (TEM): 550° C.
Liquid phase conditions: chromatography Column: Thermo AQUASIL C18 (50×2.1 mm); chromatographic mobile phase: A is 0.1% formic acid in water, solution B is 0.1% formic acid in methanol (A:B=80%: 20%-10%: 90%); flow rate: 500 μL/min; injection volume: 1 μL.
According to the drug blood concentration data, the pharmacokinetic parameters of the test compound were calculated using the pharmacokinetic calculation software WinNonlin 5.2 non-compartmental model.

HBV strain U95551 (WT) = experiment: In vitro anti-nucleoside drug-resistant HBV strain activity experiment, transient transfection; assay type: cell-based; details: Hepatitis B virus, transfected HepG2 cells
Method: as §1, with “Compounds were tested for in vitro activity against nucleoside drug-resistant HBV strains using a transient transfection cell model. HepG2 cells” for “Anti-HBV Activity Experiment In Vitro: HepG2.2.15 cells”, “cells/well) that had been transfected with nucleoside drug-resistant HBV strains” for “cells/well)”, “seeded into” for “seeded in”, “removed. The fresh” for “removed. Fresh”, “the HepG2” for “the HepG2.2.15”

[2] = system: nucleoside drug-resistant HBV strain M204I; experiment: as above; assay type: cell-based; details: Hepatitis B virus, HepG2
Method: as §1, with “Compounds were tested for in vitro activity against nucleoside drug-resistant HBV strains using a transient transfection cell model. HepG2 cells” for “Anti-HBV Activity Experiment In Vitro: HepG2.2.15 cells”, “cells/well) that had been transfected with nucleoside drug-resistant HBV strains” for “cells/well)”, “seeded into” for “seeded in”, “removed. The fresh” for “removed. Fresh”, “the HepG2” for “the HepG2.2.15”

[3] = system: nucleoside drug-resistant HBV strain M204I + S202G + M250V; experiment: as above; assay type: cell-based; details: Hepatitis B virus, HepG2, 192 h
Method: as §1, with “Compounds were tested for in vitro activity against nucleoside drug-resistant HBV strains using a transient transfection cell model. HepG2 cells” for “Anti-HBV Activity Experiment In Vitro: HepG2.2.15 cells”, “cells/well) that had been transfected with nucleoside drug-resistant HBV strains” for “cells/well)”, “seeded into” for “seeded in”, “removed. The fresh” for “removed. Fresh”, “the HepG2” for “the HepG2.2.15”

[4] = system: nucleoside drug-resistant HBV strain L180M + M204V; experiment: as above; assay type: cell-based; details: Hepatitis B virus, HepG2, 192 h
Method: as §1, with “Compounds were tested for in vitro activity against nucleoside drug-resistant HBV strains using a transient transfection cell model. HepG2 cells” for “Anti-HBV Activity Experiment In Vitro: HepG2.2.15 cells”, “cells/well) that had been transfected with nucleoside drug-resistant HBV strains” for “cells/well)”, “seeded into” for “seeded in”, “removed. The fresh” for “removed. Fresh”, “the HepG2” for “the HepG2.2.15”

[5] = system: nucleoside drug-resistant HBV strain M204I + V173L; experiment: as above; assay type: cell-based; details: Hepatitis B virus, HepG2, 192 h
Method: as §1, with “Compounds were tested for in vitro activity against nucleoside drug-resistant HBV strains using a transient transfection cell model. HepG2 cells” for “Anti-HBV Activity Experiment In Vitro: HepG2.2.15 cells”, “cells/well) that had been transfected with nucleoside drug-resistant HBV strains” for “cells/well)”, “seeded into” for “seeded in”, “removed. The fresh” for “removed. Fresh”, “the HepG2” for “the HepG2.2.15”

[6] = system: nucleoside drug-resistant HBV strain M204I + S202G; experiment: as above; assay type: cell-based; details: Hepatitis B virus, HepG2, 192 h
Method: as §1, with “Compounds were tested for in vitro activity against nucleoside drug-resistant HBV strains using a transient transfection cell model. HepG2 cells” for “Anti-HBV Activity Experiment In Vitro: HepG2.2.15 cells”, “cells/well) that had been transfected with nucleoside drug-resistant HBV strains” for “cells/well)”, “seeded into” for “seeded in”, “removed. The fresh” for “removed. Fresh”, “the HepG2” for “the HepG2.2.15”

[7] = system: HBV genotype AB246345 (C); experiment: Anti-different genotypic HBV strain activity assay in vitro, transient transfection; assay type: cell-based; details: Hepatitis B virus, HepG2
Method: as §1, with “Compounds were tested for in vitro activity against different genotypic HBV strains using a transient transfection cell model. HepG2 cells” for “Anti-HBV Activity Experiment In Vitro: HepG2.2.15 cells”, “cells/well) that had been transfected with different HBV genotypic strains” for “cells/well)”, “seeded into” for “seeded in”, “removed. The fresh” for “removed. Fresh”, “to detected” for “to detect”, “the HepG2” for “the HepG2.2.15”

[8] = system: HBV genotype AB246346 (C); experiment: as above; assay type: cell-based; details: Hepatitis B virus, HepG2
Method: as §1, with “Compounds were tested for in vitro activity against different genotypic HBV strains using a transient transfection cell model. HepG2 cells” for “Anti-HBV Activity Experiment In Vitro: HepG2.2.15 cells”, “cells/well) that had been transfected with different HBV genotypic strains” for “cells/well)”, “seeded into” for “seeded in”, “removed. The fresh” for “removed. Fresh”, “to detected” for “to detect”, “the HepG2” for “the HepG2.2.15”

[9] = system: HBV genotype JN406371 (B); experiment: as above; assay type: cell-based; details: Hepatitis B virus, HepG2
Method: as §1, with “Compounds were tested for in vitro activity against different genotypic HBV strains using a transient transfection cell model. HepG2 cells” for “Anti-HBV Activity Experiment In Vitro: HepG2.2.15 cells”, “cells/well) that had been transfected with different HBV genotypic strains” for “cells/well)”, “seeded into” for “seeded in”, “removed. The fresh” for “removed. Fresh”, “to detected” for “to detect”, “the HepG2” for “the HepG2.2.15”

HBV genotype U95551 (D) = experiment: as above; assay type: cell-based; details: Hepatitis B virus, HepG2
Method: as §1, with “Compounds were tested for in vitro activity against different genotypic HBV strains using a transient transfection cell model. HepG2 cells” for “Anti-HBV Activity Experiment In Vitro: HepG2.2.15 cells”, “cells/well) that had been transfected with different HBV genotypic strains” for “cells/well)”, “seeded into” for “seeded in”, “removed. The fresh” for “removed. Fresh”, “to detected” for “to detect”, “the HepG2” for “the HepG2.2.15”

[10] = system: HBV genotype AB033554 (B); experiment: as above; assay type: cell-based; details: Hepatitis B virus, HepG2
Method: as §1, with “Compounds were tested for in vitro activity against different genotypic HBV strains using a transient transfection cell model. HepG2 cells” for “Anti-HBV Activity Experiment In Vitro: HepG2.2.15 cells”, “cells/well) that had been transfected with different HBV genotypic strains” for “cells/well)”, “seeded into” for “seeded in”, “removed. The fresh” for “removed. Fresh”, “to detected” for “to detect”, “the HepG2” for “the HepG2.2.15”

[11] = system: HBV genotype HE974371 (A2); experiment: as above; assay type: cell-based; details: Hepatitis B virus, HepG2
Method: as §1, with “Compounds were tested for in vitro activity against different genotypic HBV strains using a transient transfection cell model. HepG2 cells” for “Anti-HBV Activity Experiment In Vitro: HepG2.2.15 cells”, “cells/well) that had been transfected with different HBV genotypic strains” for “cells/well)”, “seeded into” for “seeded in”, “removed. The fresh” for “removed. Fresh”, “to detected” for “to detect”, “the HepG2” for “the HepG2.2.15”

[12] = system: HBV genotype AP007263 (A); experiment: as above; assay type: cell-based; details: Hepatitis B virus, HepG2
Method: as §1, with “Compounds were tested for in vitro activity against different genotypic HBV strains using a transient transfection cell model. HepG2 cells” for “Anti-HBV Activity Experiment In Vitro: HepG2.2.15 cells”, “cells/well) that had been transfected with different HBV genotypic strains” for “cells/well)”, “seeded into” for “seeded in”, “removed. The fresh” for “removed. Fresh”, “to detected” for “to detect”, “the HepG2” for “the HepG2.2.15”

[13] = Sprague Dawley, IV, single administration, plasma
[14] = Sprague Dawley, PO, single administration, plasma

Question: Which EC50 (HBV (HepG2.2.15 cells)) does the source give for O=C1COC(c2cn(-c3ccc(Br)cc3)nc2-c2ccc(F)cc2)N1CCc1ccc2[nH]c(=O)[nH]c2c1 (racemic) [example 3 racemate, 3-(2-(2-oxo-2,3-dihydro-1H-benzo[d]imidazol-5-yl)ethyl)-2-(1-(4-bromophenyl)-3-(4-fluorophenyl)-1H-pyrazol-4-yl)-oxazolidin-4-one] here?
Answer: Its EC50 is 31.2 nM.

Question: And the Vd ([1]; Sprague Dawley, plasma, IV, single administration, read-out: Vz)?
Answer: Its Vd is 6.22 L/kg.

Question: What about the AUC(0-inf) [1, 13] of the same compound?
Answer: The AUC(0-inf) was 3880 ng·h/mL.

Question: What about the Cmax [1, 13] of the same compound?
Answer: The Cmax was 5460 ng/mL.

Question: And the Tmax [1, 13]?
Answer: The Tmax was 0.083 h.

Question: And the half-life [1, 13]?
Answer: Its half-life is 3.52 h.

Question: What about the AUC(0-inf) [1, 14] of the same compound?
Answer: The AUC(0-inf) was 773 ng·h/mL.

Question: What about the Cmax [1, 14] of the same compound?
Answer: Its Cmax is 201 ng/mL.

Question: And the Tmax [1, 14]?
Answer: Its Tmax is 0.83 h.

Question: What about the half-life [1, 14] of the same compound?
Answer: Its half-life is 2.07 h.

Question: What about the CLz ([1]; IV, single administration) of the same compound?
Answer: Its CLz is 21.8 mL/min/kg.

Question: What about the F ([1]; PO vs IV) of the same compound?
Answer: Its F is 18.55%.

Question: And the Vz ([1]; PO, single administration)?
Answer: Its Vz is 3.58 L/kg.

Question: Which EC50 (HBV (HepG2.2.15 cells)) does the source give for O=C1Cc2cc(CCN3C(=O)COC3c3cn(-c4ccc(Br)cc4)nc3-c3ccc(F)cc3)ccc2N1 (racemic) [example 13 racemate] here?
Answer: Its EC50 is 22 nM.

Question: What about the EC50 (HBV strain U95551 (WT)) of the same compound?
Answer: Its EC50 is 82 nM.

Question: What about the EC50 [2] of the same compound?
Answer: The EC50 was 75.8 nM.

Question: And the EC50 [3]?
Answer: The EC50 was 87.4 nM.

Question: And the EC50 [4]?
Answer: Its EC50 is 102 nM.

Question: And the EC50 [5]?
Answer: The EC50 was 72.2 nM.

Question: And the EC50 [6]?
Answer: The EC50 was 74.7 nM.

Question: What about the EC50 [7] of the same compound?
Answer: Its EC50 is 30.9 nM.

Question: And the EC50 [8]?
Answer: The EC50 was 59.2 nM.

Question: What about the EC50 [9] of the same compound?
Answer: Its EC50 is 36 nM.

Question: And the EC50 (HBV genotype U95551 (D))?
Answer: Its EC50 is 86.8 nM.

Question: What about the EC50 [10] of the same compound?
Answer: The EC50 was 47 nM.

Question: And the EC50 [11]?
Answer: Its EC50 is 32.5 nM.

Question: And the EC50 [12]?
Answer: The EC50 was 168 nM.
